Test results published in US9469652B2, “ERK inhibitors” (Eli Lilly and Company, priority 2014, dated 2016).

Key:
[1] = tested on: human colorectal cancer cells COLO-205; test: Xenograft tumor model COLO-205; format: in vivo, female athymic nude mice; settings: oral gavage; for Delta T/C % or Regr %: negative = regression
Experimental: The purpose of this assay is to measure reduction in tumor volume in response to test compound administration. Expand human colorectal cancer cells HCT116 (ATCC, # CCL-247) in culture, harvest and inject 5×10e^6 cells in 200 μL of 1:1 HBSS+matrigel solution subcutaneously on to the rear right flank of female athymic nude mice (22-25 g, Harlan Laboratories). Expand human pancreatic cancer cells MIA PACA-2 (ATCC, # CRL-1420) or human non-small cell lung cancer cells CALU-6 (ATCC, #HTB-56) or human colorectal cancer cells COLO-205 (ATCC, #CCL-222) in culture, harvest and inject 5×10e^6 cells in 200 μL of 1:1 HBSS+matrigel solution subcutaneously on to the rear right flank of female athymic nude mice (22-25 g, Harlan Laboratories). Measure tumor growth and body weight twice per week beginning the seventh day after the implantation. When tumor sizes reach 200-400 mm^3, randomize animals and group into groups of eight to ten animals. Prepare test compound in an appropriate vehicle (vehicle: 1% HEC/0.25% Tween 80/0.05% Antifoam) and administer by oral gavage for 14 to 21 days. Tumor response is determined by tumor volume measurement performed twice a week during the course of treatment. Body weight is taken as a general measure of toxicity.
A compound within the scope of invention is tested in this assay run substantially as above.

[2] = tested on: RSK1 phosphorylation in HCT116 tumor xenograft; test: In Vivo Target Inhibition (IVTI) Assay (pRSK1 ELISA Assay); design: species or system female athymic nude mice; settings: oral dosing
Experimental: The purpose of this assay is to measure the ability of a test compound to inhibit ERK1/2 substrate phosphorylation in an animal model Implant female athymic nude mice (22-25 g) from Harlan Laboratories with 5×10e^6 HCT116 colorectal cancer cells (ATCC, #CCL-247) subcutaneously in the right flank region in 200 μL of 1:1 Hank's Balanced Salt Solution (HBSS)+Matrigel solution. Measure tumor growth and body weight twice per week beginning the seventh day after the implantation. When tumor sizes reach 300-500 mm^3, randomize animals and group into groups of five animals. […]
Pulverize tumors in liquid nitrogen and lyse in 1× lysis buffer (MSD, #R60TX-3) containing 1× halt protease & phosphatase inhibitor cocktail (Thermo Scientific, #0861281), 1 mM phenylmethanesulfonyl fluoride (PMSF) (Sigma, #93482-50ML-F) and 1 μM sodium metavanadate (Sigma, #590088) using Matrix D beads (MP Biomedical, #6913-500) in a FastPrep-24™ Cell Disrupter machine (MP Biomedical) in a cold room (4° C.). […] Cool plate to room temperature and measure the absorbance at or near 562 nm on a plate reader (Envision plate reader from Perkin Elmer). Subtract the average 562 nm absorbance measurement of the blank standard replicates from the 562 nm measurements of all other individual standard and unknown (cell or tumor lysate) sample replicates. […]

SMILES: Cn1nccc1Nc1nccc(-c2cc3c(s2)C(C)(C)N(CCN2CCOCC2)C3=O)n1 [Example 1, 6,6-Dimethyl-2-{2-[(1-methyl-1H-pyrazol-5-yl)amino]pyrimidin-4-yl}-5-[2-(morpholin-4-yl)ethyl]-5,6-dihydro-4H-thieno[2,3-c]pyrrol-4-one]
- TGI % ([1]; 12.5 mg/kg QD): 119%
- Delta T/C % or Regr % ([1]; 12.5 mg/kg QD): −19%
- TGI % ([1]; 25 mg/kg QD): 132%
- Delta T/C % or Regr % ([1]; 25 mg/kg QD): −32%
- TGI % ([1]; 100 mg/kg QD): 176%
- Delta T/C % or Regr % ([1]; 100 mg/kg QD): −76%
- TED50, pRSK1 inhibition in tumor [2]: 16 mg/kg
